One block for each compound: values may come before it. Square brackets hold non-standard residues; d marks the D form. Peptide text beside a SMILES is read from it. * marks the point of attachment. Sta = CC(C)C[C@H](N)[C@@H](O)CC(=O)O; Isovaleryl = CC(C)CC(=O)*
What was measured:
human renin = molecular target: T1, human renin (Homo sapiens, UniProt P00797); assay: Human Renin Inhibition in vitro (angiotensin I generation by radioimmunoassay); assay type: biochemical; conditions: pH 7.4, 37° C., two hours, human plasma
T1 construct: purchased National Institute for Biological Standards, London
T1 sequence (P00797 67-406): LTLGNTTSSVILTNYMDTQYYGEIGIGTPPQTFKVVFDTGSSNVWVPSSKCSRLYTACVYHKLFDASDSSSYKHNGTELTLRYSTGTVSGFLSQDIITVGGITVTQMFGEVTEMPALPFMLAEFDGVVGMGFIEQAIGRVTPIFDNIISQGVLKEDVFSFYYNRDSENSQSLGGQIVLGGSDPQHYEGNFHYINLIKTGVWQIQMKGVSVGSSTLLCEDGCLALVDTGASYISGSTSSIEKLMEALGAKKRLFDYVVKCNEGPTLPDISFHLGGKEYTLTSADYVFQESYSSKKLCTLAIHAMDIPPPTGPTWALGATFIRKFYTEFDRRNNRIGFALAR
Procedure: Compounds of Formula I were evaluated as inhibitors of human renin in an in vitro assay, as follows: This human renin inhibition test has been previously described in detail [Papaioannou et al., Clinical and Experimental Hypertension, A7(9), 1243-1257 (1985)]. Human renin was obtained from the National Institute for Biological Standards, London. An incubation mixture was prepared containing the following components: in a total volume of 0.25 mL: 100 mM Tris-acetate buffer at pH 7.4, 25×10^-6 Goldblatt units of renin, 0.05 mL of plasma from human volunteers taking oral contraceptives, 6.0 mM Na-EDTA, 2.4 mM phenylmethyl sulfonyl fluoride, 1.5 mM 8-hydroxyquinoline, 0.4 mg/mL bovine serum albumin (BSA), and 0.024 mg/mL neomycin sulfate. This mixture was incubated for two hours at 37° C. in the presence or absence of renin inhibitors. The produced angiotensin I was determined by radioimmunoassay (New England Nuclear kit). Test compounds to be assayed were dissolved in DMSO and diluted with 100mM Tris-acetate buffer at pH 7.4 containing 0.5% BSA to the appropriate concentration. The final concentration of organic solvent in the reaction mixture was less than 1%. Control incubations at 37° C. were used to correct for effects of organic solvent on renin activity.

hog renin = conditions: after the injection of hog renin into nephrectomized rats; cited from earlier work
pepsin = conditions: cited from earlier work
cathepsin D = conditions: cited from earlier work
renin = conditions: cited from earlier work
acid proteases = conditions: cited from earlier work

IC50 (human renin): 0.83 nM
SMILES: C#CC[C@H](NC(=O)[C@@H](CC(=O)N(C)CCN1CCCCC1)Cc1ccccc1)C(=O)N[C@@H](CC1CCCCC1)[C@@H](O)[C@@H](O)CC(C)C [Example 1]

IC50 (human renin): 0.56 nM
SMILES: C#CC[C@H](NC(=O)[C@@H](CC(=O)N(C)CCN1Cc2ccccc2C1)Cc1ccccc1)C(=O)N[C@@H](CC1CCCCC1)[C@@H](O)[C@@H](O)CC(C)C [Example 2]

SMILES: C#CC[C@H](NC(=O)[C@@H](CC(=O)N(C)CCN1CC2CCC(CC2)C1)Cc1ccccc1)C(=O)N[C@@H](CC1CCCCC1)[C@@H](O)[C@@H](O)CC(C)C [Example 3]
IC50 (human renin): 1.2 nM

SMILES: CC(C)CC(=O)N[C@H](C(=O)N[C@H](C(=O)N[C@@H](CC(C)C)[C@@H](O)CC(=O)N[C@@H](C)C(=O)N[C@@H](CC(C)C)[C@@H](O)CC(=O)O)C(C)C)C(C)C [pepstatin] (Isovaleryl-VV[Sta]A[Sta]-OH)
reduce blood pressure in vivo (hog renin): found to reduce blood pressure in vivo | inhibition of pepsin (pepsin): inhibitor of aspartyl proteases such as pepsin | inhibition of cathepsin D (cathepsin D): inhibitor of aspartyl proteases such as pepsin, cathepsin D | inhibition of renin (renin): inhibitor of aspartyl proteases such as pepsin, cathepsin D and renin | inhibiting acid proteases in addition to renin (acid proteases): inhibiting acid proteases in addition to renin

Reference: patent US5212185A, “Piperidinyl-terminated alkylamino ethynyl alanine amino diol compounds for treatment of hypertension” (G. D. Searle & Co., priority 1992, dated 1993)
